According to patent publication US6861428B2, “Water-soluble phenylpyridazine compounds and compositions containing the same” (Kowa Co., Ltd., priority 2001, dated 2005):
Counter-ions that a name gives are not always drawn. Like-named read-outs stand apart in the source and are kept apart here.

Tests used:
[1] = test system: interleukin-1β production; assay: Inhibitory activity against interleukin-1β production (LPS-stimulated HL-60 cells, ELISA); assay type: cell-based; conditions: lipopolysaccharide 10 μg/mL, 3 days
Procedure: Inhibitory Activity Against Interleukin-1β Production
HL-60 cells were cultured for 4 days until confluence on RPMI 1640 medium with 10% fetal bovine serum (FBS) added thereto. The medium was centrifuged. The supernatant was discarded, and the cells were then suspended at 1×10^6 cells/mL on RPMI 1640 medium with 3% FBS, and lipopolysaccharide was added to give a final concentration of 10 μg/mL. The culture was inoculated at 1 mL/well to a 24-well plate. A sample compound was added at 1 μL/well, followed by culturing for 3 days. Three days later, the amount of interleukin-1β in each culture was determined by ELISA. Each IC50 value was determined by a comparison in yield with a control to which no test sample was added.

Water solubility test = assay type: physicochemical; conditions: for Solubility (%): purified water, from amount of water required for dissolution; for Dissolution in amount of added water: 100 mL purified water added
Procedure: Each sample compound was weighed in the amount shown in Table 3, to which purified water was added in 0.05 mL aliquots. The solubility (%) of the compound was determined based on the amount of water required for its dissolution.

[2] = Homo sapiens, 72 h, Table 1, read-out: IL-1β production inhibiting activity IC50
[3] = Homo sapiens, 72 h, Table 2, read-out: IL-1β production inhibiting activity IC50

For Cc1ccc(-c2cc(CN(C)C)c(=O)n(CC(C)C)n2)cc1F.Cl [Example 8, 4-dimethylaminomethyl-6-(3-fluoro-4-methylphenyl)-2-isobutyl-2H-pyridazin-3-one hydrochloride], the IC50 [1, 2] was 3.45 µM and the melting point was 246.5 to 248.5 °C.
For COc1ccc(-c2cc(CN3CCN(Cc4ccccc4)CC3)c(=O)n(CC3CC3)n2)cc1F.Cl.Cl [Example 18, 4-(4-benzyl-1-piperazinyl)methyl-2-cyclopropylmethyl-6-(3-fluoro-4-methoxyphenyl)-2H-pyridazin-3-one dihydrochloride], the IC50 [1, 2] was 5.4 µM and the “Solubility (%)” value (Water solubility test) was 1%.
In the case of COc1ccc(-c2cc(CN3CCNCC3)c(=O)n(CC3CC3)n2)cc1F.Cl.Cl [Example 21, 2-cyclopropylmethyl-6-(3-fluoro-4-methoxyphenyl)-4-(1-piperazinyl)methyl-2H-pyridazin-3-one dihydrochloride], the IC50 [1, 2] is reported as 1.01 µM and the “Solubility (%)” value (Water solubility test) is reported as greater than 20%.
Work on Cc1ccc(-c2cc(CN(CCO)CCO)c(=O)n(CC(C)C)n2)cc1 [Example 49, 4-N,N-bis(2-hydroxyethyl)aminomethyl-6-(4-methylphenyl)-2-isobutyl-2H-pyridazin-3-one hydrochloride] yielded an IC50 ([1]; Table 1, read-out: IL-1β production inhibiting activity IC50) of 3.53 µM.
CSc1ccc(-c2cc(CN(C)C)c(=O)n(CC(C)C)n2)cc1.Cl [Example 161, 4-dimethylaminomethyl-2-isobutyl-6-[4-(methylthio)phenyl]-2H-pyridazin-3-one hydrochloride] showed an IC50 [1, 2] of 2.78 µM and a melting point of 216.8 to 218.4 °C.
In the case of C#CCNCc1cc(-c2ccc(SC)cc2)nn(CC(C)C)c1=O.Cl [Example 163, 2-isobutyl-6-[4-(methylthio)phenyl]-4-propargylaminomethyl-2H-pyridazin-3-one hydrochloride], the IC50 [1, 2] is reported as 2.78 µM and the melting point is reported as 197.5 to 198.4 °C.
In the case of COc1ccc(-c2cc(CN)c(=O)n(CC3CCCC3)n2)cc1F.Cl [Example 188, 4-aminomethyl-2-cyclopentylmethyl-6-(3-fluoro-4-methoxyphenyl)-2H-pyridazin-3-one hydrochloride], the “Solubility (%)” value (Water solubility test) is reported as 0.08%.
In the case of COc1ccc(-c2cc(CN3CCN(C)CC3)c(=O)n(Cc3ccc(F)cc3)n2)cc1F [Example 189, 2-(4-fluorobenzyl)-6-(3-fluoro-4-methoxyphenyl)-4-(4-methyl-1-piperazinyl)methyl-2H-pyridazin-3-one], the IC50 [1, 2] is reported as 0.87 µM and the melting point is reported as 112 to 113 °C.
Compound COc1ccc(-c2cc(CN3CCNCC3)c(=O)n(Cc3ccc(F)cc3)n2)cc1F [Example 192, 2-(4-fluorobenzyl)-6-(3-fluoro-4-methoxyphenyl)-4-(1-piperazinyl)methyl-2H-pyridazin-3-one] has an IC50 [1, 2] of 0.64 µM and a melting point of 142 to 143 °C.
With COc1ccc(-c2cc(CN)c(=O)n(Cc3ccc(F)cc3)n2)cc1F.Cl [Example 195, 4-aminomethyl-2-(4-fluorobenzyl)-6-(3-fluoro-4-methoxyphenyl)-2H-pyridazin-3-one hydrochloride] the “Solubility (%)” value (Water solubility test) was 0.2%.
For COc1ccc(-c2cc(CN)c(=O)n(Cc3ccc(Cl)cc3)n2)cc1F.Cl [Example 206, 4-aminomethyl-2-(4-chlorobenzyl)-6-(3-fluoro-4-methoxyphenyl)-2H-pyridazin-3-one hydrochloride], the “Solubility (%)” value (Water solubility test) was 0.06%.
In the case of COc1ccc(-c2cc(CN3CCN(C)CC3)c(=O)n(Cc3ccc(F)c(F)c3)n2)cc1F [Example 207, 2-(3,4-difluorobenzyl)-6-(3-fluoro-4-methoxyphenyl)-4-(4-methyl-1-piperazinyl)methyl-2H-pyridazin-3-one], the IC50 [1, 3] is reported as 2.7 µM and the melting point is reported as 135.4 to 136 °C.
In the case of COc1ccc(-c2cc(CN(C)C)c(=O)n(Cc3ccc(F)c(F)c3)n2)cc1F [Example 208, 2-(3,4-difluorobenzyl)-4-dimethylaminomethyl-6-(3-fluoro-4-methoxyphenyl)-2H-pyridazin-3-one], the IC50 [1, 3] is reported as 6.1 µM and the melting point is reported as 129.9 to 130.4 °C.
In the case of COc1ccc(-c2cc(CN3CCN(C)CC3)c(=O)n(CC=Cc3ccc(Cl)cc3)n2)cc1F [Example 209, 2-(4-chlorocinnamyl)-6-(3-fluoro-4-methoxyphenyl)-4-(4-methyl-1-piperazinyl)methyl-2H-pyridazin-3-one], the IC50 [1, 3] is reported as 2.8 µM and the melting point is reported as 123.9 to 125.5 °C.
For COc1ccc(-c2cc(CN3CCN(CCO)CC3)c(=O)n(CC=Cc3ccc(Cl)cc3)n2)cc1F [Example 210, 2-(4-chlorocinnamyl)-6-(3-fluoro-4-methoxyphenyl)-4-[4-(2-hydroxyethyl)-1-piperazinyl]methyl-2H-pyridazin-3-one], the IC50 [1, 3] was 3.1 µM.
For COc1ccc(-c2cc(CCCN3CCNCC3)c(=O)n(CC3CC3)n2)cc1F [Example 213, 2-cyclopropylmethyl-6-(3-fluoro-4-methoxyphenyl)-4-[3-(1-piperazinyl)propyl]-2H-pyridazin-3-one], the IC50 [1, 2] was 0.24 µM.
With COc1ccc(-c2cc(CCCN3CCNCC3)c(=O)n(CC3CC3)n2)cc1F.Cl.Cl [Example 214, 2-cyclopropylmethyl-6-(3-fluoro-4-methoxyphenyl)-4-[3-(1-piperazinyl)propyl]-2H-pyridazin-3-one dihydrochloride] the “Solubility (%)” value (Water solubility test) was 10%.
In the case of COc1ccc(-c2cc(CCCN)c(=O)n(CC3CC3)n2)cc1F [Example 216, 4-(3-aminopropyl)-2-cyclopropylmethyl-6-(3-fluoro-4-methoxyphenyl)-2H-pyridazin-3-one], the IC50 [1, 2] is reported as 1.14 µM.
In the case of COc1ccc(-c2cc(CCCN)c(=O)n(CC3CC3)n2)cc1F.Cl [Example 217, 4-(3-aminopropyl)-2-cyclopropylmethyl-6-(3-fluoro-4-methoxyphenyl)-2H-pyridazin-3-one hydrochloride], the “Solubility (%)” value (Water solubility test) is reported as 10%.
For Cc1cc(-c2cc(CN3CCN(C)CC3)c(=O)n(CCCc3ccc(Cl)cc3)n2)ccc1F [Example 218, 2-[3-(4-chlorophenyl)propyl]-6-(4-fluoro-3-methylphenyl)-4-(4-methyl-1-piperazinyl)methyl-2H-pyridazin-3-one], the IC50 [1, 3] was 6.8 µM.
Cc1cc(-c2cc(CN3CCN(C)CC3)c(=O)n(Cc3ccc(Cl)cc3)n2)ccc1F [Example 222, 2-(4-chlorobenzyl)-6-(4-fluoro-3-methylphenyl)-4-(4-methyl-1-piperazinyl)methyl-2H-pyridazin-3-one] gave an IC50 [1, 3] of 5.8 µM and a melting point of 133.3 to 133.8 °C.
Compound Cc1cc(-c2cc(CN3CCN(C)CC3)c(=O)n(Cc3ccccc3Cl)n2)ccc1F [Example 224, 2-(2-chlorobenzyl)-6-(4-fluoro-3-methylphenyl)-4-(4-methyl-1-piperazinyl)methyl-2H-pyridazin-3-one] has a melting point of 149.7 to 150.9 °C.
Cc1cc(-c2cc(CCCN)c(=O)n(Cc3ccccc3Cl)n2)ccc1F [Example 227, 4-(3-aminopropyl)-2-(2-chlorobenzyl)-6-(4-fluoro-3-methylphenyl)-2H-pyridazin-3-one] showed an IC50 [1, 3] of 5.2 µM and a melting point of 80 to 85 °C.
For Cc1cc(-c2cc(CN3CCN(C)CC3)c(=O)n(CCc3ccc(Cl)cc3)n2)ccc1F [Example 230, 2-[2-(4-chlorophenyl)ethyl]-6-(4-fluoro-3-methylphenyl)-4-(4-methyl-1-piperazinyl)methyl-2H-pyridazin-3-one], the IC50 [1, 3] was 4 µM.
In the case of Cc1cc(-c2cc(CN3CCN(C)CC3)c(=O)n(Cc3c(Cl)cccc3Cl)n2)ccc1F [Example 231, 2-(2,6-dichlorobenzyl)-6-(4-fluoro-3-methylphenyl)-4-(4-methyl-1-piperazinyl)methyl-2H-pyridazin-3-one], the IC50 [1, 3] is reported as 5.7 µM.
Cc1cc(-c2cc(CN)c(=O)n(Cc3ccccc3Cl)n2)ccc1F [Example 237, 4-aminomethyl-2-(2-chlorobenzyl)-6-(4-fluoro-3-methylphenyl)-2H-pyridazin-3-one] gave a melting point of 97.6 to 102.2 °C.
Compound COc1ccc(-c2cc(CCCN3CCN(C)CC3)c(=O)n(Cc3ccc(F)cc3)n2)cc1F [Example 239, 2-(4-fluorobenzyl)-6-(3-fluoro-4-methoxyphenyl)-4-[3-(4-methyl-1-piperazinyl)propyl]-2H-pyridazin-3-one] has a melting point of 108 to 109 °C.
With COc1ccc(-c2cc(CN3CCN(C)CC3)c(=O)n(CCCc3ccccc3Cl)n2)cc1F [Example 241, 2-[3-(2-chlorophenyl)propyl]-6-(3-fluoro-4-methoxyphenyl)-4-(4-methyl-1-piperazinyl)methyl-2H-pyridazin-3-one] the IC50 [1, 3] was 6.4 µM.
Work on COc1ccc(-c2cc(CN3CCN(C)CC3)c(=O)n(CCCc3ccc(Cl)cc3)n2)cc1F [Example 242, 2-[3-(4-chlorophenyl)propyl]-6-(3-fluoro-4-methoxyphenyl)-4-(4-methyl-1-piperazinyl)methyl-2H-pyridazin-3-one] yielded an IC50 [1, 3] of 7.7 µM.
In the case of CCOC(=O)Nc1cc(-c2ccc(OC)cc2)nn(C/C=C/c2ccc(Cl)cc2)c1=O [compound 1, reference compound], the “Dissolution in amount of added water” value (Water solubility test) is reported as “(insoluble)” and the “Solubility (%)” value (Water solubility test) is reported as less than 0.001%.
With CNC(=O)c1cc(-c2ccc(OC)cc2)nn(CC(C)C)c1=O [compound 2, reference compound] the “Dissolution in amount of added water” value (Water solubility test) was “(insoluble)” and the “Solubility (%)” value (Water solubility test) was less than 0.001%.
For COc1ccc(-c2cc(C(=O)O)c(=O)n(C/C=C/c3ccc(Cl)cc3)n2)cc1 [compound 4, reference compound], the “Dissolution in amount of added water” value (Water solubility test) was “(insoluble)” and the “Solubility (%)” value (Water solubility test) was less than 0.001%.
